# Structures can show the parent of a compound that is named as a salt.
# Experiments:
# Type in all cases: cell-based
# Details in all cases: ratio to NECA
# adenosine 1 receptor = target: T1, adenosine 1 receptor (Homo sapiens, UniProt P30542); experiment: Agonist activity, CHO cells transfected with human adenosine receptor and CRE-SPAP reporter; forskolin-enhanced cAMP (A1)
# T1 construct: expressed in transfected cells; host or cells: CHO cells
# T1 sequence (P30542 1-326): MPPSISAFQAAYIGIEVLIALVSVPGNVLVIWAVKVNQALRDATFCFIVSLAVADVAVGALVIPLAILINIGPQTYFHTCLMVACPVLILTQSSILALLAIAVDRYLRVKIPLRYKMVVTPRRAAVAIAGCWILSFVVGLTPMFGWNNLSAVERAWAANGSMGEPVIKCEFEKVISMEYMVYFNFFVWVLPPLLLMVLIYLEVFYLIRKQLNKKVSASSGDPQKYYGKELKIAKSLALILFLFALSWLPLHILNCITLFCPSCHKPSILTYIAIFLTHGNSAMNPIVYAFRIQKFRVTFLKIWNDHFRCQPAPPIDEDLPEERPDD
# Procedure: (§1) (1) Agonist activity against adenosine 2a, adenosine 1 and adenosine 3 receptor subtypes.
# (§2) Agonist selectivity of compounds against other human adenosine receptors is determined using Chinese hamster ovary (CHO) cells transfected with the gene for the relevant human adenosine receptor following a method based on that of Castanon and Spevak, 1994. The CHO cells are also transfected with cyclic AMP response elements promoting the gene for secreted placental alkaline phosphatase (SPAP) (Wood, 1995). The effect of test compounds may be determined by their effects on basal levels of CAMP (A2a) or on forskolin-enhanced cAMP (A1 and A3) as reflected by changes in levels of SPAP. EC50 values for compounds may then be determined as a ratio to that of the non-selective agonist N-ethyl carboxamide adenosine (NECA).
# adenosine 2a receptor = target: T2, adenosine 2a receptor (Homo sapiens, UniProt P29274); experiment: Agonist activity, CHO cells transfected with human adenosine receptor and CRE-SPAP reporter; basal cAMP (A2a)
# T2 construct: expressed in transfected cells; host or cells: CHO cells
# Procedure: as §1, §2
# adenosine 3 receptor = target: T3, adenosine 3 receptor (Homo sapiens, UniProt P0DMS8); experiment: Agonist activity, CHO cells transfected with human adenosine receptor and CRE-SPAP reporter; forskolin-enhanced cAMP (A3)
# T3 construct: expressed in transfected cells; host or cells: CHO cells
# T3 sequence (P0DMS8 1-318): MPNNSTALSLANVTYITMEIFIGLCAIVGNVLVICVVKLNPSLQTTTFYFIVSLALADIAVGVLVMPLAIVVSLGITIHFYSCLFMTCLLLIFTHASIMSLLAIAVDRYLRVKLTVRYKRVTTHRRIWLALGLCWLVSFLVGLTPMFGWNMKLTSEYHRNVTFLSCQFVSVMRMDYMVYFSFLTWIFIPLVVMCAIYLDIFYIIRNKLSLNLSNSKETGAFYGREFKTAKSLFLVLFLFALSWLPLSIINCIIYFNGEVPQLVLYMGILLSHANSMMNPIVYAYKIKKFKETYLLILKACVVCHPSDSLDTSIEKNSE
# Procedure: as §1, §2
# [1] = * data are minimum values since preparation was found, after testing, to contain an inactive impurity
# [2] = ** data on retested purified compound
# T2 sequence (P29274 whole entry): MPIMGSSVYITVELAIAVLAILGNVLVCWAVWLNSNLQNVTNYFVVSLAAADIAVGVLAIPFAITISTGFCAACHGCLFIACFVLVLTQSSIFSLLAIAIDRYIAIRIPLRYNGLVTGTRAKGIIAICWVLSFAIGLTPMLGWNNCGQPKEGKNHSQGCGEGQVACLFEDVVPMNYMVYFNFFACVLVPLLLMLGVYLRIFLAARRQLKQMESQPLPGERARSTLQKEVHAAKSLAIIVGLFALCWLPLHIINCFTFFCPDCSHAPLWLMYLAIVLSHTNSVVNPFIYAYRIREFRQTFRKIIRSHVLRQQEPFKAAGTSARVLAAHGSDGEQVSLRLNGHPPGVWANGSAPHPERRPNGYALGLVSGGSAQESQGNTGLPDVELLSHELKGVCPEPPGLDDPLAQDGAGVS
"A1, EC50 as a ratio of that of NECA (adenosine 1 receptor; [1])","A2a, EC50 as a ratio of that of NECA (adenosine 2a receptor; [1])","A3, EC50 as a ratio of that of NECA (adenosine 3 receptor; [1])","A1, EC50 as a ratio of that of NECA (adenosine 1 receptor; [2])","A2a, EC50 as a ratio of that of NECA (adenosine 2a receptor; [2])","A3, EC50 as a ratio of that of NECA (adenosine 3 receptor; [2])",Compound,"A1, EC50 as a ratio of that of NECA (adenosine 1 receptor; CHO cells, SPAP readout)","A2a, EC50 as a ratio of that of NECA (adenosine 2a receptor; CHO cells, SPAP readout)","A3, EC50 as a ratio of that of NECA (adenosine 3 receptor; CHO cells, SPAP readout)"
–,–,–,–,–,–,Cc1noc([C@H]2O[C@@H](n3cnc4c(NCC(c5ccccc5)c5ccccc5)nc(NCCc5cn(C)cn5)nc43)[C@H](O)[C@@H]2O)n1.O=C(O)C(F)(F)F.O=C(O)C(F)(F)F [Example 1],1306,1.19,>197
–,–,–,–,–,–,CCc1noc([C@H]2O[C@@H](n3cnc4c(NCC(c5ccccc5)c5ccccc5)nc(NCCc5cn(C)cn5)nc43)[C@H](O)[C@@H]2O)n1.O=C(O)C(F)F.O=C(O)C(F)F [Example 2],1823,0.64,>197
6719,4.63,>304,–,–,–,"CCc1noc(C2OC(n3cnc4c(NCC(c5ccccc5)c5ccccc5)nc(NC5CCNC5)nc43)C(O)C2O)n1 [Example 3, (2R,3R,4S,5S)-2-[6-(2,2-Diphenyl-ethylamino)-2-(pyrrolidin-3R-ylamino)-purin-9-yl]-5-(3-ethyl-[1,2,4]oxadiazol-5-yl)-tetrahydro-furan-3,4-diol formate]",–,–,–
–,–,–,–,–,–,"CCc1noc(C2OC(n3cnc4c(NCC(c5ccccc5)c5ccccc5)nc(NC5CCC(N)CC5)nc43)C(O)C2O)n1.O=CO.O=CO [Example 4, (2R,3R,4S,5S)-2-[2-(trans-4-Amino-cyclohexylamino)-6-(2,2-diphenyl-ethylamino)-purin-9-yl]-5-(3-ethyl-[1,2,4]oxadiazol-5-yl)-tetrahydro-furan-3,4-diol diformate]",>=3996,5.37,>383
–,–,–,–,–,–,"CCc1noc(C2OC(n3cnc4c(NCC(c5ccccc5)c5ccccc5)nc(NC(CO)C(C)C)nc43)C(O)C2O)n1 [Example 5, (2R,3R,4S,5S)-2-[6-(2,2-Diphenyl-ethylamino)-2-(1S-hydroxymethyl-2-methyl-propylamino)-purin-9-yl]-5-(3-ethyl-[1,2,4]oxadiazol-5-yl)-tetrahydro-furan-3,4-diol formate]",1391.2,6.12,>309
>=3865,14.05,>215,–,–,–,CCc1noc(C2OC(n3cnc4c(N)nc(NCCc5ccccn5)nc43)C(O)C2O)n1.O=CO.O=CO (stereo not drawn) [Example 8],–,–,–
1692.4,0.81,>231,3006,0.086,>287,"CCc1noc(C2OC(n3cnc4c(N)nc(NC(CO)Cc5ccccc5)nc43)C(O)C2O)n1 [Example 9, (2R,3R,4S,5S)-2-[6-Amino-2-(1S-hydroxymethyl-2-phenyl-ethylamino)-purin-9-yl]-5-(3-ethyl-[1,2,4oxadiazol-5-yl)-tetrahydro-furan-3,4-diol formate]",–,–,–
3449.6,7.66,>269,–,–,–,"CCc1noc(C2OC(n3cnc4c(N)nc(NCCc5cn(C)cn5)nc43)C(O)C2O)n1 [Example 10, (2R,3R,4S,5S)-2-{6-Amino-2-[2-(1-methyl-1H-imidazol-4-yl)-ethylamino]-purin-9-yl}-5-(3-ethyl-1,2,4]oxadiazol-5-yl)-tetrahydro-furan-3,4-diol diformate]",–,–,–
1863.5,4.54,>302,–,–,–,"Cc1noc(C2OC(n3cnc4c(N)nc(NC(CO)Cc5ccccc5)nc43)C(O)C2O)n1 [Example 12, (2R,3R,4S,5S)-2-[6-Amino-2-(1S-hydroxymethyl-2-phenyl-ethylamino)-purin-9-yl]-5-(3-methyl-[1,2,4]oxadiazol-5-yl)-tetrahydro-furan-3,4-diol formate]",–,–,–
–,–,–,–,–,–,"CCc1noc([C@H]2O[C@@H](n3cnc4c(NC(CC)CC)nc(NCCc5cn(C)cn5)nc43)[C@H](O)[C@@H]2O)n1.O=CO [Example 13, (2S,3S,4R,5R)-2-(3-Ethyl-[1,2,4]oxadiazol-5-yl)-5-(6-(1-ethyl-propylamino)-2-[2-(1-methyl-1H-imidazol-4-yl)-ethylamino]-purin-9-yl}tetrahydro-furan-3,4-diol formate]",>=4370,0.61,>289
–,–,–,–,–,–,"CCC(CC)Nc1nc(NCCc2cn(C)cn2)nc2c1ncn2[C@@H]1O[C@H](c2nc(C)no2)[C@@H](O)[C@H]1O.O=CO [Example 14, (2R,3R,4S,5S)-2-{6-(1-Ethyl-propylamino)-2-[2-(1-methyl-1H-imidazol-4-yl)-ethylamino]-purin-9-yl}-5-(3-methyl-[1,2,4]oxadiazol-5-yl)-tetrahydro-furan-3,4-diol formate]",>4587,0.66,>239
–,–,–,–,–,–,"Cc1noc([C@H]2O[C@@H](n3cnc4c(N)nc(NCCc5ccccc5)nc43)[C@H](O)[C@@H]2O)n1.O=C(O)C(F)(F)F [Example 15, (2R,3R,4S,5S)-2-(6-Amino-2-phenethylamino-purin-9-yl)-5-(3-methyl-[1,2,4]oxadiazol-5-yl)-tetrahydro-furan-3,4-diol trifluoroacetate]",>5511,2.29,>130
>6244,3.97,>362,–,–,–,"CCC(CC)Nc1nc(NC(CO)Cc2ccccc2)nc2c1ncn2C1OC(c2nc(C)no2)C(O)C1O [Example 17, (2R,3R,4S,5S)-2-[6-(1-Ethyl-propylamino)-2-(1S-hydroxymethyl-2-phenl-ethylamino)-purin-9-yl]-5-(3-methyl-[1,2,4]oxadiazol-5-yl)-tetrahydro-furan-3,4-diol formate]",–,–,–

Compound,"A1, EC50 as a ratio of that of NECA (adenosine 1 receptor; [1])","A2a, EC50 as a ratio of that of NECA (adenosine 2a receptor; [1])","A3, EC50 as a ratio of that of NECA (adenosine 3 receptor; [1])","A1, EC50 as a ratio of that of NECA (adenosine 1 receptor; [2])","A2a, EC50 as a ratio of that of NECA (adenosine 2a receptor; [2])","A3, EC50 as a ratio of that of NECA (adenosine 3 receptor; [2])","A1, EC50 as a ratio of that of NECA (adenosine 1 receptor; CHO cells, SPAP readout)","A2a, EC50 as a ratio of that of NECA (adenosine 2a receptor; CHO cells, SPAP readout)","A3, EC50 as a ratio of that of NECA (adenosine 3 receptor; CHO cells, SPAP readout)"
"CCC(CC)Nc1nc(NCCN2CCOCC2)nc2c1ncn2[C@@H]1O[C@H](c2nc(C)no2)[C@@H](O)[C@H]1O.O=CO [Example 6, (2R,3R,4S,5S)-2-[6-(1-Ethyl-propylamino)-2-(2-morpholin-4-yl-ethylamino)-purin-9-yl]-5-(3-methyl-[1,2,4]oxadiazol-5-yl)-tetrahydro-furan-3,4-diol formate]",>4833,41.35,>642,–,–,–,–,–,–
Cc1noc([C@H]2O[C@@H](n3cnc4c(N)nc(NCCc5cn(C)cn5)nc43)[C@H](O)[C@@H]2O)n1.O=C(O)C(F)(F)F.O=C(O)C(F)(F)F [Example 7],1013.4,11.02,>117,–,–,–,–,–,–
"Cc1noc([C@H]2O[C@@H](n3cnc4c(N)nc(NC5CCCC5)nc43)[C@H](O)[C@@H]2O)n1.O=CO [Example 11, (2R,3R,4S,5S)-2-(6-Amino-2-cyclopentylamino-purin-9-yl)-5-(3-methyl-[1,2,4]oxadiazol-5-yl)-tetrahydro-furan-3,4-diol formate]",145.5,6.66,>266,–,–,–,–,–,–
"CCC(CC)Nc1nc(N[C@H]2CC[C@H](N)CC2)nc2c1ncn2[C@@H]1O[C@H](c2nc(C)no2)[C@@H](O)[C@H]1O.O=CO [Example 16, (2R,3R,4S,5S)-2-[2-(trans-4-Amino-cyclohexylamino)-6-(1-ethyl-propylamino)-purin-9-yl]-5-(3-methyl-[1,2,4]oxadiazol-5-yl)tetrahydro-furan-3,4-diol formate]",>6244,11.87,>362,–,–,–,–,–,–
"CCC(CC)Nc1nc(NCCN2CCCCC2)nc2c1ncn2[C@@H]1O[C@H](c2nc(C)no2)[C@@H](O)[C@H]1O.O=CO [Example 18, (2R,3R,4S,5S)-2-[6-(1-Ethyl-propylamino)-2-(2-piperidin-1-yl-ethylamino)-purin-9-yl]-5-(3-methyl-[1,2,4]oxadiazol-5-yl)-tetrahydro-furan-3,4-diol formate]",>6244,8.16,>314,–,–,–,–,–,–

# Reference: patent publication US6610665B1 (Smithkline Beecham Corporation, priority 1998, dated 2003)
